In patent publication US12091404B2 (Gilead Sciences, Inc., priority 2021, dated 2024):

Biological target: T1, GLP-1R (Homo sapiens, UniProt P43220)
Assay: GLP-1R Activation - cAMP Assay 1
Format: cell-based
Conditions: cAMP increase in CHO cells stably expressing GLP-1R; 10-point dose response, 30 minutes incubation at 37° C.
Protocol: GLP-1R Activation—cAMP Assay 1
GLP-1R activation by a compound of the present disclosure was quantified by measuring cAMP increase in CHO cells stably expressing GLP-1R (MultiSpan product #C1267-1a). The cells were harvested and plated in growth medium (DMEM/F-12 (Corning product #10-090-CV) supplemented with 10% FBS (HyClone product #SH30071-03), penicillin/streptomycin (Corning product #30-002CI) and 10 µg/ml puromycin (Gibco product #A11138-03)) at 1,000 cells/well in a 384-well plate (Greiner product #781080). The cells were then incubated overnight at 37° C., 5% CO2. The next day, the medium was removed and the cells were washed with DPBS (Corning product #21-031-CM) before adding the assay medium (HBSS, Corning product #21-023-CV) with 20 mM Hepes (Gibco product #15630-080) and 0. 1% BSA (Rockland Immunochemicals product #BSA-1000)). Following the medium change, the cells were incubated for 1 hour at 37° C., 5% CO2. The tested GLP-1 compound was added to the cells in a 10-point dose response followed by a 30 minutes incubation at 37° C., 5% CO2. cAMP concentration increase was then detected using Cisbio's cAMP Gs Dynamic Kit (product #62AM4PEC) according to the manufacturer's protocol. The response was plotted against the log of the agonist concentration and fitted to a sigmoidal equation to determine the EC50.

T1 sequence (P43220 24-463): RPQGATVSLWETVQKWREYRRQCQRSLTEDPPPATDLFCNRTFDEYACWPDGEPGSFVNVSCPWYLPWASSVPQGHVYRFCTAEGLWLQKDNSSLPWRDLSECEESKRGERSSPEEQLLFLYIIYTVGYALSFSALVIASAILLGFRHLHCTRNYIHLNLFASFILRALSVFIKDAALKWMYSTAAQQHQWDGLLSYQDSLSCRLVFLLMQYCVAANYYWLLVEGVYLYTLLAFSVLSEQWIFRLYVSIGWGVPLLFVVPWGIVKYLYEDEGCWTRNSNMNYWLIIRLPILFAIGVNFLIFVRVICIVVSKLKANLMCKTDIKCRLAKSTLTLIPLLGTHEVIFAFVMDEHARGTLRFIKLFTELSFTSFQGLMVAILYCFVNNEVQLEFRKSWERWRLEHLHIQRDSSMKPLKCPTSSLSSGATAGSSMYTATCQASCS

| Compound | EC50 [nM] |
| --- | --- |
| COCCn1c(CN2CCC(c3cccc(OCc4cscn4)n3)CC2)nc2ccc(C(=O)O)cc21 [Example 19, 1-(2-methoxyethyl)-2-((4-(6-(thiazol-4-ylmethoxy)pyridin-2-yl)piperidin-1-yl)methyl)-1H-benzo[d]imidazole-6-carboxylic acid] | 5900 |
| COCCn1c(CN2CCC(c3cccc(OCc4ccc(C#N)s4)n3)CC2)nc2ccc(C(=O)O)cc21 [Example 2, 2-((4-(6-((5-cyanothiophen-2-yl)methoxy)pyridin-2-yl)piperidin-1-yl)methyl)-1-(2-methoxyethyl)-1H-benzo[d]imidazole-6-carboxylic acid] | 47.3 |
| COCCn1c(CN2CCC(c3cccc(OCc4ccsc4)n3)CC2)nc2ccc(C(=O)O)cc21 [Example 12, 1-(2-methoxyethyl)-2-((4-(6-(thiophen-3-ylmethoxy)pyridin-2-yl)piperidin-1-yl)methyl)-1H-benzo[d]imidazole-6-carboxylic acid] | 831 |
| COCCn1c(CN2CCC(c3cccc(OCc4cnc(Cl)s4)n3)CC2)nc2ccc(C(=O)O)cc21 [Example 3, 2-[[4-[6-[(2-chlorothiazol-5-yl)methoxy]-2-pyridyl]-1-piperidyl]methyl]-3-(2-methoxyethyl)benzimidazole-5-carboxylic acid] | 307 |
| COCCn1c(CN2CCC(c3cccc(OCc4nccs4)n3)CC2)nc2ccc(C(=O)O)cc21 [Example 18, 1-(2-methoxyethyl)-2-((4-(6-(thiazol-2-ylmethoxy)pyridin-2-yl)piperidin-1-yl)methyl)-1H-benzo[d]imidazole-6-carboxylic acid] | 869 |
| COCCn1c(CN2CCC(c3cccc(OCc4csc5ccccc45)n3)CC2)nc2ccc(C(=O)O)cc21 [Example 13, 2-((4-(6-(benzo[b]thiophen-3-ylmethoxy)pyridin-2-yl)piperidin-1-yl)methyl)-1-(2-methoxyethyl)-1H-benzo] | 197 |
| COCCn1c(CN2CCC(c3cccc(OCc4cnn(C)n4)n3)CC2)nc2ccc(C(=O)O)cc21 [Example 20, 1-(2-methoxyethyl)-2-((4-(6-((2-methyl-2H-1,2,3-triazol-4-yl)methoxy)pyridin-2-yl)piperidin-1-yl)methyl)-1H-benzo[d]imidazole-6-carboxylic acid] | 4350 |
| COCCn1c(CN2CCC(c3cccc(OCc4nnc(Cl)s4)n3)CC2)nc2ccc(C(=O)O)cc21 [Example 4] | 294 |
| COCCn1c(CN2CCC(c3cccc(OCc4csc5cc(Cl)ccc45)n3)CC2)nc2ccc(C(=O)O)cc21 [Example 11, 2-((4-(6-((6-chlorobenzo[b]thiophen-3-yl)methoxy)pyridin-2-yl)piperidin-1-yl)methyl)-1-(2-methoxyethyl)-1H-benzo[d]imidazole-6-carboxylic acid] | 156 |
| COCCn1c(CN2CCC(c3cccc(OCc4sc(C#N)cc4F)n3)CC2)nc2ccc(C(=O)O)cc21 [Example 1, 2-((4-(6-((5-cyano-3-fluorothiophen-2-yl)methoxy)pyridin-2-yl)piperidin-1-yl)methyl)-1-(2-methoxyethyl)-1H-benzo[d]imidazole-6-carboxylic acid] | 166 |

Biological target: T1, GLP-1R
Assay: GLP-1R Activation - cAMP Assay 2
Format: cell-based
Conditions: not given
Protocol: GLP-1R Activation—cAMP Assay 2 GLP-1R activation by small molecule agonists is quantified by measuring cAMP increase in CHO cells stably expressing GLP-1R (MultiSpan product #C1267-1a). 50 nL of agonists are pre-spotted in a 10-point dose response onto 384-well plate (Corning product #CL3826) using the Labcyte Echo System. […] The cells are then incubated for 30 minutes at 37° C., 5% CO2. cAMP concentration increase is then detected using Cisbio's cAMP Gs Dynamic Kit (product #62AM4PEC) according to the manufacturer's protocol. The response is plotted against the log of the agonist concentration and fitted to a sigmoidal equation to determine the EC50.

| Compound | EC50 [nM] |
| --- | --- |
| N#Cc1ccc(COc2cccc(C3CCN(Cc4nc5ccc(C(=O)O)cc5n4C[C@@H]4CCO4)CC3)n2)s1 [Example 6, (S)-2-((4-(6-((5-cyanothiophen-2-yl)methoxy)pyridin-2-yl)piperidin-1-yl)methyl)-1-(oxetan-2-ylmethyl)-1H-benzo[d]imidazole-6-carboxylic acid] | 0.9 |

Same assay, conditions: cAMP increase in CHO cells stably expressing GLP-1R; pre-spotted agonists, assay buffer or 100% Human Plasma (not stated which), 30 minutes at 37° C.; read-out: GLP-1R Activation- Assay 2 EC50 (nm)

| Compound | EC50 [nM] |
| --- | --- |
| N#Cc1cnc(COc2cccc(C3CCN(Cc4nc5ccc(C(=O)O)cc5n4C[C@@H]4CCO4)CC3)n2)s1 [Example 17, (S)-2-((4-(6-((5-cyanothiazol-2-yl)methoxy)pyridin-2-yl)piperidin-1-yl)methyl)-1-(oxetan-2-ylmethyl)-1H-benzo[d]imidazole-6-carboxylic acid] | 24.1 |
| NC(=O)c1ccc(COc2cccc(C3CCN(Cc4nc5ccc(C(=O)O)cc5n4C[C@@H]4CCO4)CC3)n2)s1 [Example 7, (S)-2-((4-(6-((5-carbamoylthiophen-2-yl)methoxy)pyridin-2-yl)piperidin-1-yl)methyl)-1-(oxetan-2-ylmethyl)-1H-benzo[d]imidazole-6-carboxylic acid] | 36.5 |
| O=C(O)c1ccc2nc(Cc3cc(F)c(-c4cccc(OCc5cc(C(F)(F)F)cs5)n4)cc3F)n(C[C@@H]3CCO3)c2c1 [Example 10, 2-[[2,5-difluoro-4-[6-[[4-(trifluoromethyl)-2-thienyl]methoxy]-2-pyridyl]phenyl]methyl]-3-[[(2S)-oxetan-2-yl]methyl]benzimidazole-5-carboxylic acid] | 0.4 |
| O=C(O)c1ccc2nc(CN3CCC(c4cccc(OCc5ccn(C(F)F)n5)n4)CC3)n(C[C@@H]3CCO3)c2c1 [Example 8, (S)-2-((4-(6-((1-(difluoromethyl)-1H-pyrazol-3-yl)methoxy)pyridin-2-yl)piperidin-1-yl)methyl)-1-(oxetan-2-ylmethyl)-1H-benzo[d]imidazole-6-carboxylic acid] | 21.5 |
| O=C(O)c1ccc2nc(CN3CCC(c4cccc(OCc5cc(C(F)(F)F)cs5)n4)CC3)n(C[C@@H]3CCO3)c2c1 [Example 16, (S)-1-(oxetan-2-ylmethyl)-2-((4-(6-((4-(trifluoromethyl)thiophen-2-yl)methoxy)pyridin-2-yl)piperidin-1-yl)methyl)-1H-benzo[d]imidazole-6-carboxylic acid] | 4.1 |
| O=C(O)c1ccc2nc(CN3CCC(c4cccc(OCc5nc(C(F)(F)F)cs5)n4)CC3)n(C[C@@H]3CCO3)c2c1 [Example 15, (S)-1-(oxetan-2-ylmethyl)-2-((4-(6-((4-(trifluoromethyl)thiazol-2-yl)methoxy)pyridin-2-yl)piperidin-1-yl)methyl)-1H-benzo[d]imidazole-6-carboxylic acid] | 5.2 |
| O=C(O)c1ccc2nc(CN3CCC(c4cccc(OCc5ncc(C(F)(F)F)s5)n4)CC3)n(C[C@@H]3CCO3)c2c1 [Example 14, (S)-1-(oxetan-2-ylmethyl)-2-((4-(6-((5-(trifluoromethyl)thiazol-2-yl)methoxy)pyridin-2-yl)piperidin-1-yl)methyl)-1H-benzo[d]imidazole-6-carboxylic acid] | 1.8 |
| Cn1ccc(COc2cccc(C3CCN(Cc4nc5ccc(C(=O)O)cc5n4C[C@@H]4CCO4)CC3)n2)n1 [Example 5, (S)-2-((4-(6-((1-methyl-1H-pyrazol-3-yl)methoxy)pyridin-2-yl)piperidin-1-yl)methyl)-1-(oxetan-2-ylmethyl)-1H-benzo[d]imidazole-6-carboxylic acid] | > 100 |
| Cn1cc(C#Cc2ccc(COc3cccc(C4CCN(Cc5nc6ccc(C(=O)O)cc6n5C[C@@H]5CCO5)CC4)n3)s2)cn1 [Example 9, 2-[[4-[6-[[5-[2-(1-methylpyrazol-4-yl)ethynyl]-2-thienyl]methoxy]-2-pyridyl]-1-piperidyl]methyl]-3-[[(2S)-oxetan-2-yl]methyl]benzimidazole-5-carboxylic acid] | 3.3 |
